Source: patent US5750540A, “1,4-di-substituted piperidine derivatives” (Banyu Pharmaceutical Co., Ltd., priority 1995, dated 1998)

Columns and labels:
[1] = molecular target: T1, intestinal M3 receptors (ileum) (Rattus norvegicus, UniProt P08483); test: Antagonism against intestinal M3 receptors in an isolated rat ileum; settings: in vitro, agonist carbachol
T1 construct: the ileum was excised; from tissue; host or cells: isolated rat ileum
Procedure: 4) Tests for antagonism against the intestinal M3 receptors in an isolated rat ileum
A male SD strain rat (weighing 300-500 g) was killed by exsanguination, and the ileum was excised. This ileum was cut to make ileum preparations having a length of 2 cm. A preparation was suspended in a Magnus tube filled with 20 ml of Krebs-Henseleit nutrient solution (gassed with 95% O2 -5% CO2 and kept at 32° C.) under a load of 0.5 g. The tension of the preparation was recorded isotonically. After being equilibrated for an hour, the preparation was made to contract twice by treatment with 10^-4 M carbachol, and the second contraction induced by carbachol was used as the reference contraction. After the preparation was washed with fresh solution to make a return to the base line, a test compound was administered thereto (or no treatment was made). Ten minutes later, carbachol (10^-8 to 10^-3 M) was cumulatively administered from the lowermost concentration in three-fold increasing doses to obtain a dose-response curve. The dose-response curve was constructed by expressing responses as percentages based on the reference contraction of the preparation. The antagonistic potency (KB value) of the test compound was determined from the degree of shift of the dose-response curve obtained by treatment with the test compound.

[2] = molecular target: T2, M2 receptors (right atrium) (Rattus norvegicus, UniProt P10980); test: Antagonism against M2 receptors in an isolated rat right atrium; settings: in vitro, agonist carbachol
T2 construct: the right atrium was excised; from tissue; host or cells: isolated rat right atrium
T2 sequence (P10980 1-466): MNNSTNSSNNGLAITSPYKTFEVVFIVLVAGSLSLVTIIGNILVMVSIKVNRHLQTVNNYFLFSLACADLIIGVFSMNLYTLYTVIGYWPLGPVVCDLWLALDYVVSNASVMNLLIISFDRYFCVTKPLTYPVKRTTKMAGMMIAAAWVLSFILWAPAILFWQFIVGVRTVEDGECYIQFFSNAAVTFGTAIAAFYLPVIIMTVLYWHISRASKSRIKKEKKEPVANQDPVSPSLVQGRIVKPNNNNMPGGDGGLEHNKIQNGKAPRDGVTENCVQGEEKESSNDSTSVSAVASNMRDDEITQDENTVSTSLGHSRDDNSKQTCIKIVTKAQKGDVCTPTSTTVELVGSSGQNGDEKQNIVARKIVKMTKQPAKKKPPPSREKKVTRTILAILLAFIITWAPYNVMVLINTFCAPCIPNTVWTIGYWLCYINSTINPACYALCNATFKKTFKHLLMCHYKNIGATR
Procedure: 2) Tests for antagonism against the M2 receptors in an isolated rat right atrium
These tests were performed according to an ordinary method. A male SD strain rat (weighing 300-500 g) was killed by exsanguination, and the right atrium was excised. This preparation was isometrically suspended in a Magnus tube filled with 20 ml of Krebs-Henseleit nutrient solution (gassed with 95% O2 -5% CO2 and kept at 32° C.) with an initial tension of 0.5 g. The heart rate was recorded with a heart rate counter. After the preparation was equilibrated for 30 minutes, carbachol (10^-9 to 10^-6 M) was cumulatively administered from the lowermost concentration in three-fold increasing doses. Thus, a decrease in heart rate was measured to obtain a dose-response curve for the control experiment. After the preparation was washed with fresh solution to restore the heart rate, a test compound was administered thereto. Ten minutes later, carbachol was cumulatively administered again. Responses to carbachol were expressed as percentages based on the heart rate before administration of carbachol. The antagonistic potency (KB value) of the test compound (i.e., a compound in accordance with the present invention) was determined from the degree of shift of the dose-response curve obtained by treatment with the test compound.

muscarinic M2 receptors [3] = molecular target: T3, muscarinic M2 receptors (Rattus norvegicus, UniProt P10980); test: Inhibition of binding to muscarinic M2 receptors ([3H]-N-methylscopolamine, heart membrane); settings: 0.2 nM [3H]-N-methylscopolamine
T3 construct: a membrane specimen from the heart was used as the membrane specimen; from tissue; host or cells: rat heart membranes (SD rat)
T3 sequence (P10980 1-466): T2 sequence (P10980 1-466)
Procedure: The compounds of formula [I] in accordance with the present invention have a potent and selective inhibitory effect on binding to muscarinic receptors, as well as a potent and selective antagonistic effect on muscarinic receptors both in vitro and in vivo. […] In these tests, their inhibitory and antagonistic effects were expressed in terms of the dissociation constant (Ki) of each test compound which was calculated from its concentration (IC50 ) causing a 50% inhibition of the binding of a labeled ligand to muscarinic receptors. As the labeled ligand, [^3 H]-telenzepine was used for the muscarinic M1 receptors and [^3 H]-N-methylscopolamine for the muscarinic M2 and M3 receptors.
A male SD strain rat (purchased from Nippon Charles River Co., Ltd.), weighing about 250-350 g, was sacrificed, and the cerebral cortex, heart and lacrimal glands were excised. Using a Polytron (setting 5), each organ was homogenized in 5 volumes of an ice-cold buffer solution (pH 7.4) containing 50 mM tris-HCl, 5 mM magnesium chloride, 1 mM trisodium ethylenediaminetetraacetate and 20% sucrose. The resulting homogenate was centrifuged at 3,000×g at 4° C. for 15 minutes, and the supernatant was filtered through gauze and ultracentrifuged at 100,000×g at 4° C. for 45 minutes. The resulting precipitate was suspended in an ice-cold buffer solution (pH 7.4) containing 50 mM tris-HCl and 5 mM magnesium chloride (hereinafter referred briefly to as "tris buffer") and ultracentrifuged at 100,000×g at 4° C. for 45 minutes. The resulting precipitate was suspended in tris buffer so as to give a concentration of 50 mg/ml and stored at -80° C. till use. The membrane specimens so prepared were thawed prior to use and submitted to tests for the inhibition of binding to muscarinic receptors.
3) Tests for the inhibition of binding to the muscarinic M2 receptors
The nonspecific binding of [^3 H]-N-methylscopolamine to receptors was determined by the addition of 1 mM N-methylscopolamine.

muscarinic M2 receptors [4] = molecular target: T3, muscarinic M2 receptors; test: Bradycardia in rats (acetylcholine-induced); type: in vivo; settings: iv, 5 min, i.v., 5 minutes after administration, 50% inhibition of acetylcholine-induced bradycardia, read-out: Bradycardia ID50
Procedure: 6) Tests for bradycardia in rats
Eight- to eleven-weeks-old male rats of the Sprague-Dawley strain, weighing 300-400 g, were anesthetized with urethane (750 mg/kg, i.p.) and α-chloralose (37.5 mg/kg, i.p.). A bronchus was intubated, and the right jugular vein was cannulated for drug administration. […] To evoke bradycardia, acetylcholine (50 μg/kg, i.v.) was administered to the animals. Mean values for the acetylcholine-induced decrease in heart rate as measured five minutes before (control) and five minutes after test compound administration were calculated and the results were expressed as percentages relative to the control response. The ID50 value was calculated from the dose-response curve of the test compound using probit analysis and defined as the drug dose that inhibited the acetylcholine-induced bradycardia in the control group by 50%.

T1 sequence (P08483 whole entry): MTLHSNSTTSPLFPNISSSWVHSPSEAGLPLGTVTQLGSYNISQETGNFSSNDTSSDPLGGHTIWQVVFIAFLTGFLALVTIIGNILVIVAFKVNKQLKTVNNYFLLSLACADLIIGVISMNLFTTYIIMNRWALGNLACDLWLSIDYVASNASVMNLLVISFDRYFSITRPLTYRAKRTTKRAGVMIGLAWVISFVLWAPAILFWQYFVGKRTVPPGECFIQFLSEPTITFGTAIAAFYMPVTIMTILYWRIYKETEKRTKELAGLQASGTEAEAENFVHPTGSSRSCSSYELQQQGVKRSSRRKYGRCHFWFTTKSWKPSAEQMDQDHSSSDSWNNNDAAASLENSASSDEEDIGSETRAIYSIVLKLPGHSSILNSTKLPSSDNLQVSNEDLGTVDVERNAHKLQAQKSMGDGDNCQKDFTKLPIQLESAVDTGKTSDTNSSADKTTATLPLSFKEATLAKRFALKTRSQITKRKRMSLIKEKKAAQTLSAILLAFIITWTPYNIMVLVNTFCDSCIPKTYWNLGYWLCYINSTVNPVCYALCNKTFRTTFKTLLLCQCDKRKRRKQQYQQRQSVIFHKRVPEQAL

CC(C)=CCCN1CCC(NC(=O)C(O)(c2ccccc2)C2CCC2)CC1 (stereo not shown) [Example 1, N-[1-(4-methyl-3-pentenyl)-piperidin-4-yl]-2-cyclobutyl-2-hydroxy-2-phenylacetamide] gave a Kb [1] of 24 nM, a Kb [2] of 1500 nM and a Ki (muscarinic M2 receptors [3]) of 860 nM. The ED50 (muscarinic M2 receptors [4]) was > 3 mg/kg.
